Data taken from ChEMBL document CHEMBL5543068, “Mitochondrial targeting derivatives of honokiol enhanced selective antitumor activity in NCI-H446 cells and decreased in vivo toxicity in Caenorhabditis elegans” (Eur J Med Chem, 2024).

Tests used:
NCI-H446 = assay: Antiproliferative activity against human NCI-H446 cells assessed as reduction in cell viability incubated for 48 hrs by MTT assay; type: functional, cell-based; conditions: NCI-H446, 48 h
[1] = Cytotoxicity against HBE (human bronchial epithelial) cells assessed as reduction in cell viability incubated for 48 hrs by MTT assay; type: toxicity, cell-based
[2] = Cytotoxicity against human HL7702 cells assessed as reduction in cell viability incubated for 48 hrs by MTT assay; type: toxicity, cell-based; conditions: HL7702 (L02) cells
HepG2 = assay: Antiproliferative activity against human HepG2 cells assessed as reduction in cell viability incubated for 48 hrs by MTT assay; type: functional, cell-based; conditions: HepG2, 48 h
A549 = assay: Antiproliferative activity against human A549 cells assessed as reduction in cell viability incubated for 48 hrs by MTT assay; type: functional, cell-based; conditions: A549, 48 h

C=CCc1ccc(OCCCOC(=O)Cc2c3[n+](cc4c(OC)c(OC)ccc24)CCc2cc4c(cc2-3)OCO4)c(-c2ccc(OC)c(CC=C)c2)c1
IC50 (NCI-H446): 7.08 µM | IC50 at 48 h [1]: 19.4 µM | IC50 at 48 h [2]: 6.5 µM | IC50 (HepG2): 6.6 µM | IC50 (A549): > 10 µM

C=CCc1ccc(OC)c(-c2ccc(OCCCCCCCCCC[n+]3ccc(/C=C/c4c[nH]c5ccccc45)cc3)c(CC=C)c2)c1
IC50 (NCI-H446): 5.21 µM | IC50 at 48 h [1]: 13.5 µM | IC50 at 48 h [2]: 7.09 µM | IC50 (HepG2): 2.73 µM | IC50 (A549): 10.6 µM

C=CCc1ccc(OC(=O)Cc2c3[n+](cc4c(OC)c(OC)ccc24)CCc2cc4c(cc2-3)OCO4)c(-c2ccc(OC)c(CC=C)c2)c1
IC50 (NCI-H446): 3.22 µM | IC50 at 48 h [1]: 8.14 µM | IC50 at 48 h [2]: 5 µM | IC50 (HepG2): 2.67 µM | IC50 (A549): 5.52 µM

C=CCc1ccc(OCCC)c(-c2ccc(OCCCCCCCCCCOC(=O)Cc3c4[n+](cc5c(OC)c(OC)ccc35)CCc3cc5c(cc3-4)OCO5)c(CC=C)c2)c1
IC50 (NCI-H446): 7.87 µM | IC50 at 48 h [1]: 10.7 µM | IC50 at 48 h [2]: 4.39 µM | IC50 (HepG2): 7.89 µM | IC50 (A549): 6.21 µM
